This data set in a line: in vitro dissolution test (concentration enhancement) in PBS, microcentrifuge method. The data set is classed as physicochemical. The note with it: PBS pH 6.5, 37° C. How it is done: For this test, samples containing 7.2 mg of Example 1 were added to microcentrifuge tubes, in duplicate. The tubes were placed in a 37° C. temperature-controlled chamber, and 1.8 mL PBS at pH 6.5 and 290 mOsm/kg was added. The samples were quickly mixed using a vortex mixer for about 60 seconds. The samples were centrifuged at 13,000 G at 37° C. for 1 minute. […] The contents of the tubes were mixed on the vortex mixer and allowed to stand undisturbed at 37° C. until the next sample was taken. […] Control 1 and crystalline Drug 1 were tested using the same procedure. The concentration of drug obtained in these samples were used to determine the values of the maximum concentration of drug in the first ninety minutes (Cmax90) and the area under the curve of drug concentration versus time in the first ninety minutes (AUC90). […] The physical properties of the dispersions of Example 3, Control C2 and crystalline Drug 2 alone were determined as Example 1 with the following exceptions. […] Samples were analyzed by HPLC, with absorbance at 297 nm (Hewlett Packard 1100 HPLC, Zorbax SB C18 column, 35% acetonitrile/65% H2O).

[1] abbreviates: Drug 2, 2000 μg/mL if all of the drug had dissolved.

The structures appear in SMILES notation.

Consider two compounds from US6763607B2, “Method for making homogeneous spray-dried solid amorphous drug dispersions utilizing modified spray-drying apparatus” (Pfizer Inc., priority 2002, dated 2004).

In the case of `O=C(N[C@@H](Cc1ccccc1)[C@@H](O)C(=O)N1C[C@@H](O)[C@@H](O)C1)c1cc2cc(Cl)ccc2[nH]1` [Crystalline Drug 2, 5-chloro-1H-indole-2-carboxylic acid [(1S)-benzyl-(2R)-hydroxy-3-((3R,4S)-dihydroxy-pyrrolidin-1-yl-)-3-oxypropyl]amide], under setting [1], the AUC90 is 12,800 min*μg/mL and the Cmax90 is 149 µg/mL.
For `CCOC(=O)N1c2ccc(C(F)(F)F)cc2C(N(Cc2cc(C(F)(F)F)cc(C(F)(F)F)c2)C(=O)OC)CC1CC` (stereo not drawn) [Crystalline Drug 1, 4-[(3,5-bis-trifluoromethyl-benzyl)-methoxycarbonyl-amino]-2-ethyl-6-trifluoromethyl-3,4-dihydro-2H-quinoline-1-carboxylic acid ethyl ester], the AUC90 (Drug 1, area under drug concentration versus time curve in the first ninety minutes) was under 88 µg·min/mL. In addition, for the setting “Drug 1, maximum concentration of drug in the first ninety minutes”, the Cmax90 was under 1 µg/mL. In addition, the “Drug 1 Concentration” value is 0 µg/mL (supernatant after centrifugation, time 0 min); under 1 µg/mL (time 4 min); under 1 µg/mL (time 10 min); under 1 µg/mL (time 20 min); under 1 µg/mL (time 40 min); under 1 µg/mL (time 90 min). Also, under “time 1200 min”, the “Drug 1 Concentration” value was under 1 µg/mL. The “Drug 1 AUC” value is, setting by setting: (time 0 min) 0 min-μg/ml; (time 4 min) under 2 min-μg/ml; (time 10 min) under 8 min-μg/ml; (time 20 min) under 18 min-μg/ml; (time 40 min) under 38 min-μg/ml; (time 90 min) under 88 min-μg/ml. The “Drug 1 AUC” value (time 1200 min) is on record as <1,200 min-μg/ml.
